Experiment [1] concerns the target MBP-cTlp1 (Azospirillum brasilense, UniProt Q64I05, R562A). In words: equilibrium dialysis, HPLC quantification. The class given is binding. On the technique in general: In equilibrium dialysis free small molecules cross a membrane that holds back macromolecules.
In experiment [2] the target is MBP-cTlp1 (Azospirillum brasilense, UniProt Q64I05). The experiment can be described thus: equilibrium dialysis, HPLC quantification. The class given is binding.
Chain of MBP-cTlp1 (Azospirillum brasilense, UniProt Q64I05) (Q64I05 344-660): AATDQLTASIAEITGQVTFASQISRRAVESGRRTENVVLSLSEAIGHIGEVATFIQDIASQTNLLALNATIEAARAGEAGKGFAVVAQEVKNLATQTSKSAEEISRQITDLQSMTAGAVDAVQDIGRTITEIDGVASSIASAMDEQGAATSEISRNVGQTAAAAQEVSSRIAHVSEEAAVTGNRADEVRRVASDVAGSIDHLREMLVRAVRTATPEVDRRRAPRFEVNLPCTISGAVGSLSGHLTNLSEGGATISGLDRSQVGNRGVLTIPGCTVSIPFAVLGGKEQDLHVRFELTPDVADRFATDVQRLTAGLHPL

Chain of MBP-cTlp1 (Azospirillum brasilense, UniProt Q64I05, R562A) (Q64I05 344-660 R562A): as the sequence (Q64I05 344-660) above, with R219A counted along it

With `Nc1nc2c(ncn2[C@@H]2O[C@@H]3CO[P@](=O)(O)O[C@H]4[C@@H](O)[C@H](n5cnc6c(=O)[nH]c(N)nc65)O[C@@H]4CO[P@](=O)(O)O[C@H]3[C@H]2O)c(=O)[nH]1` [c-di-GMP], the Kd amounted to 21.8 ± 7.1 µM on MBP-cTlp1 [1] and 6.9 ± 1.2 µM at MBP-cTlp1 [2].

As a reminder, the Kd is the concentration at which binding is half-saturated. A lower Kd goes with a tighter complex.

Source of the values: PMC3604760 (mBio, 2013).
